Results from patent publication US9730922B2, “Combined therapy for cystic fibrosis” (I.E.R.F.C. EUROPEAN INSTITUTE FOR CYSTIC FIBROSIS RESEARCH, priority 2012, dated 2017).

How the values were obtained:
Cftr^F508del mice = test: Cftr^F508del mice, CFTR localisation and lung inflammation; assay type: in vivo; details: for signs of lung inflammation: wt littermates
ΔF508-CFTR [1] = molecular target: T1, ΔF508-CFTR (Homo sapiens, UniProt P13569, DEL508-508); test: SPQ halide (iodide) efflux assay in freshly isolated brushed nasal epithelial cells; assay type: cell-based; set-up: Nasal epithelial cells freshly isolated by nasal brushing from 5 CF patients carrying ΔF508/ΔF508 CFTR mutations; endogenous in cells; host or cells: primary brushed nasal epithelial cells from ΔF508/ΔF508 CF patients; details: 18 h exposure, wash and reculture 24 h with medium; brushed nasal cells from ΔF508/ΔF508 patients
Source text: We examined whether cystamine or EUK-134 (Luciani A, 2010) would induce and sustain functional ΔF508-CFTR expression in freshly isolated brushed nasal epithelial cells from ΔF508/ΔF508 patients (Table 1A). We used primary nasal epithelial cells freshly obtained from ΔF508-CFTR homozygous patients, to directly test the efficacy of these autophagy-rescuing strategies on CFTR function in human airways. We used a fluorescent-based SPQ halide efflux assays (Silvis M R, 2009) to test the response to a short pulse of forskolin (FSK) added together with either of two different CFTR potentiators, genistein or VX-532, (Van Goor F, 2010) and analyzed at least 50 brushed nasal cells for group of treatment in each patient. Freshly isolated brushed nasal epithelial cells were incubated for 18 h with either cystamine or EUK-134 or with the well known CFTR correctors Corr-4a and VRT-325.
Nasal epithelial cells freshly isolated by nasal brushing from 5 CF patients carrying ΔF508/ΔF508 CFTR mutations (see Table 1A) and 5 non-CF age- and sex-matched controls (3 F, mean age 12.5 yrs) were immersed in washing solution (PBS, DTT 2 mM, EDTA 10 mM) at 37° C. for 1 h on thermal shaker, centrifuged at 2,300×g for 20 min and washed in PBS. The isolated cells were maintained in 1 ml MEM Earl's salt L-Glutamine medium supplemented with 10% FBS and the appropriate amount of penicillin/streptomycin.^31 Brushed nasal cells were cultured for 18 h with medium, Vrx-325, Corr-4a (10 μM up to 50 μM) (kindly provided by Cystic Fibrosis Foundation, USA), cystamine (250 μM, Sigma-Aldrich), EUK-134 (50 μg ml^−1, Vinci Biochem), followed by 24 h of incubation with medium alone.
Iodide efflux. […] Changes in CFTR-mediated SPQ fluorescence were monitored at the 445 nm wavelength in response to excitation at 340 nm during perfusion at 37° C. in nitrate buffer (NaI replaced with 130 mM NaNO3) for 10 min with 20 μM forskolin plus 50 μM genistein or 20 μM forskolin plus 20 μM VRX-532 (kindly provided by Cystic Fibrosis Foundation, USA). The peak iodide efflux rate (usually 12 min after forskolin plus genistein or forskolin plus Vrx-532) of treated or untreated cells was calculated in accordance with the Stern-Volmer relationship as follows: (Fo/F)−1=KCQ
where F is the observed fluorescence, Fo is the fluorescence in the absence of a quenching anion, CQ is the concentration of the quenching anion, and K is the Stern-Volmer quench constant. The rates were calculated using SigmaPlot Version 7.1 for each mean fluorescence trace generated from the 50 cells examined per population per coverslip.

ΔF508-CFTR [2] = molecular target: T1, ΔF508-CFTR; test: CFTR function in airway epithelial cell lines after pre-treatment, washout and pulse with potentiators; assay type: cell-based; set-up: airway epithelial cell lines carrying ΔF508/ΔF508 CFTR mutations; endogenous in cells; details: for enabling the activity of genistein, VX-532 and VX-770 on ΔF508-CFTR: 48 h after withdrawal of the pre-treatment; for enabling the action of CFTR potentiators genistein or VX-532 in stimulating CFTR channel function: pre-treatment 18 h, washout 48 h, single pulse with potentiator, ΔF508/ΔF508 airway epithelial cell lines; for stimulating CFTR function (as potentiator): after pre-treatment with the mentioned molecules followed by 48 h of washout
Procedure: To provide the rationale for the use of either TG2 inhibitors or drugs that reduce ROS levels as pre-treatment before the administration of CFTR potentiators, another experimental setting was used, where airway epithelial cell lines carrying ΔF508/ΔF508 CFTR mutations were treated with cystamine or EUK-134 or where TG2 was depleted by a small interference RNA approach or where ROS were reduced by the overexpression of the human Manganese Superoxide-dismutase (Mn-SOD).
Another experimental approach was used to test the efficacy of other pharmacological agents able to damp down TG2 and/or reduce the levels of ROS. […] These pharmacological agents were tested following the experimental approach of pre-treatment (18 h), washout (48 h) and single pulse with potentiators, in presence or absence of PA-LPS stimulation after pulse with potentiators, following the procedure above described.
Moreover, the efficacy of other molecules endowed with either ROS inhibiting activity or potentiator activity was tested.

[3] = test system: ΔF508-CFTR homozygous airways; details: mice in vivo and human tissues in vitro; cited from earlier work
[4] = test system: ΔF508-CFTR homozygous patients; details: cited from earlier work
[5] = test system: nasal polyp biopsies from ΔF508/ΔF508 patients; test: ex vivo cultures of nasal polyp mucosal biopsies (confocal microscopy, in situ TG2 activity); assay type: cell-based, human
Procedure: Nasal polyp biopsies from five ΔF508/ΔF508 patients (Table 1B) were treated with cystamine for 18 h, washed and then cultured for further 36 h in the absence of cystamine.
Next, ΔF508/ΔF508 nasal polyp biopsies were pulsed for 30 min with genistein followed by 4 h incubation with PA-LPS. […] To examine whether pre-treatment with cystamine was effective in enabling the action of genistein in human airways, nasal polyp biopsies were incubated with cystamine or medium for 18 h, then washed and kept in medium alone for 24 h and finally pulsed for 30 min with genistein followed by 4 h PA-LPS.
Human samples: ex vivo cultures of nasal polyp mucosal biopsies. Nasal polyp biopsies from 5 ΔF508 homozygous patients undergoing surgical treatment for non-allergic nasal polyposis (see Table 1B) were cultured as previously described,^7,19,32 for 18 h with medium, cystamine or EUK-134, followed by 36 h of incubation with medium alone, and then pulsed for 30 min with medium or genistein followed by 4 h of PA-LPS challenge.
Human tissue sections: five-micrometer frozen human lung tissue sections were fixed in acetone for 10 min. The sections were incubated for 2 h at room temperature with the indicated antibodies (Abs). […] The primary Abs were: CFTR 1:100 (CF3, Abcam), CFTR 1:100 (H-182, Santa Cruz Biotecnology) (used on mouse tissue), phospho-Tyr 1:200 (Santa Cruz Biotecnology), p62 1:300 (Sigma). These were followed by incubation with Alexa 488 or 546 secondary antibodies (Molecular Probe, Invitrogen). Data were analyzed under fluorescence examination by a LSM510 Zeiss confocal laser-scanning unit (Carl Zeiss, Germany).
In situ detection of TG2 exzyme activity. TG2 activity in tissue samples was detected by incubating unfixed sections with biotinylated monodansylcadaverine for 1 h at 37° C. The incorporation of labeled substrate was visualized by incubation with Alexa 546-conjugated streptavidin (1:100; Molecular Probes, Invitrogen) for 30 min.

[6] = i.p. 7 days followed by 10 days of vehicle only

T1 sequence (P13569 with tags, fused parts or gaps DEL508-508): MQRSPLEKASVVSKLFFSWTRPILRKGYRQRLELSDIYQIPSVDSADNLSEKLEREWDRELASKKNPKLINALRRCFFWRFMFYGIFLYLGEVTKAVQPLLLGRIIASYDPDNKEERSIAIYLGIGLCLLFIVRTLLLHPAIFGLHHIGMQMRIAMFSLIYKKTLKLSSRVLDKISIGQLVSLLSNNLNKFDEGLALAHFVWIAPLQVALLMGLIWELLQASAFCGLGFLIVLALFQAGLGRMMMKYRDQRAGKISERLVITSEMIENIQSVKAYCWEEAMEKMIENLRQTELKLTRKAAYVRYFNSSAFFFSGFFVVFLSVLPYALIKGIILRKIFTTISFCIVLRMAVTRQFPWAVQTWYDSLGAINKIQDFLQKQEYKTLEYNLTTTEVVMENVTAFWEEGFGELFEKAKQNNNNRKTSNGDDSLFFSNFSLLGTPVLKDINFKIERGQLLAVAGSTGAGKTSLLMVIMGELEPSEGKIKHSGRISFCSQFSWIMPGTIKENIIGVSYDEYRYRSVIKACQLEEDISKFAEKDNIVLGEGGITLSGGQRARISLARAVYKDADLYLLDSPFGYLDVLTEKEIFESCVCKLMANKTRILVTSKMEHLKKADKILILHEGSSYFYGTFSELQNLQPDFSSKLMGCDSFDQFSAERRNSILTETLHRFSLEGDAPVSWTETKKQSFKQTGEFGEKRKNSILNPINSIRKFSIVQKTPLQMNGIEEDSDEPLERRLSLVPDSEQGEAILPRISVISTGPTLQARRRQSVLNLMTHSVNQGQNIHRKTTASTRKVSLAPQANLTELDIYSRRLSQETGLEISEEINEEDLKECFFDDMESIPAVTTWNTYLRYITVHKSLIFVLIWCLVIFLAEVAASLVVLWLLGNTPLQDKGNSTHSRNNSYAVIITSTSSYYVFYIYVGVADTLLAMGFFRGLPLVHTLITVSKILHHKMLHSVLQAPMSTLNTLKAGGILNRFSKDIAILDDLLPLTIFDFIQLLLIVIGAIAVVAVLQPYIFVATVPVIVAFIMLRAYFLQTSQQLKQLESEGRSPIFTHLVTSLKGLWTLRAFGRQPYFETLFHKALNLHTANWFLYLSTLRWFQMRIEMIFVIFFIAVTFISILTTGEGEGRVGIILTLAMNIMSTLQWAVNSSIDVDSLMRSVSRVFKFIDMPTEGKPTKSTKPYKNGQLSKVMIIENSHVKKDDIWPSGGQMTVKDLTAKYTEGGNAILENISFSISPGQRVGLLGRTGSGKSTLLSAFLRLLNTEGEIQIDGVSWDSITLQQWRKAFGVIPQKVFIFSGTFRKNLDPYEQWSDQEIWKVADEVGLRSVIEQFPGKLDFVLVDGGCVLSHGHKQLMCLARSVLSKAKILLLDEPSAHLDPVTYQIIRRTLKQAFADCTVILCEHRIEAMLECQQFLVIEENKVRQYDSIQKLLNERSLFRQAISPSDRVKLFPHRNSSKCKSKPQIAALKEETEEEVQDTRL

Cn1cnc(N)c2ncnc1-2 [3-MA]
effects of cystamine (ΔF508 re-location, reduced lung inflammation) with co-treatment during the phase of withdrawal (Cftr^F508del mice; intraperitoneal treatment during the withdrawal phase): abrogated

COc1ccc(Cl)cc1Nc1nc(-c2sc(NC(=O)c3ccccc3)nc2C)cs1 [Corr-4a]
ΔF508-CFTR response to a short pulse of forskolin plus genistein or VX-532 (SPQ halide efflux) (ΔF508-CFTR [1]): only had scarce effects

COc1cccc(C=NCCN=Cc2cccc(OC)c2[O-])c1[O-].[Cl-].[Mn+3] [EUK-134]
enabling the activity of genistein, VX-532 and VX-770 on ΔF508-CFTR (ΔF508-CFTR [2]): enables the activity of the CFTR potentiators genistein and VX-532 as well as of the well known CFTR potentiator VX-770 | enabling the action of CFTR potentiators genistein or VX-532 in stimulating CFTR channel function (ΔF508-CFTR [2]): similarly effective in enabling the action of CFTR potentiators | ΔF508-CFTR response to a short pulse of forskolin plus genistein or VX-532 (SPQ halide efflux) (ΔF508-CFTR [1]): rendered the cells capable of conserving ΔF508-CFTR response | inflammation in ΔF508-CFTR homozygous airways [3]: blunts inflammation

COc1ccc(S(=O)(=O)N2CCN(C(C)c3nc(OC4CCCCC4)c4ccccc4n3)CC2)cc1 (centres unmarked) [VRT-325]
ΔF508-CFTR response to a short pulse of forskolin plus genistein or VX-532 (SPQ halide efflux) (ΔF508-CFTR [1]): only had scarce effects

Cc1ccc(NC(=O)C2(c3ccc4c(c3)OC(F)(F)O4)CC2)nc1-c1cccc(C(=O)O)c1 [VX-809]
lung function or CF complications [4]: no improvement | sweat chloride [4]: modest dose-dependent reductions

CC(=O)N[C@@H](CS)C(=O)O [acetylcysteine]
inflammation in ΔF508-CFTR homozygous airways [3]: blunts inflammation

O=c1cc(-c2ccc(O)cc2)oc2cc(O)cc(O)c12 [apigenin]
stimulating CFTR function (as potentiator) (ΔF508-CFTR [2]): as effective as genistein in stimulating CFTR function

NCCSSCCN [cystamine]
enabling the activity of genistein, VX-532 and VX-770 on ΔF508-CFTR (ΔF508-CFTR [2]): enables the activity of the CFTR potentiators genistein and VX-532 as well as of the well known CFTR potentiator VX-770 | enabling the action of CFTR potentiators genistein or VX-532 in stimulating CFTR channel function (ΔF508-CFTR [2]): similarly effective in enabling the action of CFTR potentiators | reduction of signs of mucosal inflammation (TG2 activation and protein tyrosine phosphorylation) ([5]; cystamine 18 h, washed, 36 h washout): persisted after 36 h of washout | rescue of CFTR at the epithelial surface (confocal microscopy) ([5]; cystamine 18 h, washed, 36 h without cystamine): persisted for 36 h after cystamine withdrawal | lung inflammation (Cftr^F508del mice; daily inhalations of aerosolized 0.2 mg/mouse/day for one week): reduced lung inflammation | re-location of ΔF508 protein at the respiratory epithelial surface (Cftr^F508del mice; [6]): persisted for 10 days after cystamine withdrawal | reducing lung inflammation (Cftr^F508del mice; [6]): persisted for 10 days after cystamine withdrawal | signs of lung inflammation (Cftr^F508del mice): not effective | ΔF508-CFTR response to a short pulse of forskolin plus genistein or VX-532 (SPQ halide efflux) (ΔF508-CFTR [1]): rendered the cells capable of conserving ΔF508-CFTR response | inflammation in ΔF508-CFTR homozygous airways [3]: blunts inflammation

Oc1cc(O)c2c(c1)O[C@H](c1cc(O)c(O)c(O)c1)[C@H](O)C2 [epigallocatechin]
stimulating CFTR function (as potentiator) (ΔF508-CFTR [2]): as effective as genistein in stimulating CFTR function

O=c1c(-c2ccc(O)cc2)coc2cc(O)cc(O)c12 [genistein]
epithelial protein phosphorylation ([5]; 30 min pulse followed by 4 h PA-LPS, no pre-treatment): not effective in reducing epithelial protein phosphorylation | signs of lung inflammation after genistein pulse and aerosolized PA-LPS (Cftr^F508del mice; mice not pretreated with cystamine): had no effect on its own | signs of lung inflammation after genistein pulse and aerosolized PA-LPS (Cftr^F508del mice; mice pre-treated with aerosolized cystamine one week, one week without treatment): significantly reduced the signs of lung inflammation | signs of lung inflammation (Cftr^F508del mice): not effective

O=c1c(O)c(-c2ccc(O)c(O)c2)oc2cc(O)cc(O)c12 [quercetin]
stimulating CFTR function (as potentiator) (ΔF508-CFTR [2]): as effective as genistein in stimulating CFTR function

COc1cc(C2Oc3cc([C@H]4Oc5cc(O)cc(O)c5C(=O)[C@@H]4O)ccc3OC2CO)ccc1O (some centres unmarked) [silybin]
stimulating CFTR function (as potentiator) (ΔF508-CFTR [2]): as effective as genistein in stimulating CFTR function

catechin
stimulating CFTR function (as potentiator) (ΔF508-CFTR [2]): as effective as genistein in stimulating CFTR function
